In patent US20110059970A1, “4-PHENYL-1,3-THIAZOLES AND 4-PHENYL-1,3-OXAZOLES DERIVATIVES AS CANNABINOID RECEPTOR LIGANDS” (IPSEN PHARMA S.A.S., priority 2007, published 2011) one finds Ki and melting point data, which are given here for 8 compounds.

Structures are written as SMILES. Where a name gives a salt, the structure may show the parent alone.

The melting point is the temperature of the solid-liquid transition.

The target of one series is T1, human CB2 receptors (Homo sapiens, UniProt P34972).
T1 construct: expressed in transfected cells; membranes prepared from them
T1 sequence (P34972 whole entry): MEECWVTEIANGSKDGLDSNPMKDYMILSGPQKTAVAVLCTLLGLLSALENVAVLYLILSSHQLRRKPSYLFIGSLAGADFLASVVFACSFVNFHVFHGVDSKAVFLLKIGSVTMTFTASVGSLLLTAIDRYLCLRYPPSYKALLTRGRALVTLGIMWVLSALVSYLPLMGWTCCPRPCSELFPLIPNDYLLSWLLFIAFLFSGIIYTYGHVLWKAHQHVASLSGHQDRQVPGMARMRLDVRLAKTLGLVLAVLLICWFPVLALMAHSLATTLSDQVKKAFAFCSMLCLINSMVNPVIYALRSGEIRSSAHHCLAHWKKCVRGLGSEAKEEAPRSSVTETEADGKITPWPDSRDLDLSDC
Kind of series: Affinity for human CB2 receptors: inhibition of [3H]-CP55940 binding to membranes of transfected CHO-K1 cells. The conditions noted are these: [3H]-CP55940 (1 nM) competition, CHO-K1 membranes; IC50 converted to Ki by Cheng-Prusoff; read-out: affinity for the CB2 receptor. The protocol:
Study of the Affinity of the Compounds for Human Cannabinoid CB2 Receptors
The affinity of the compounds of the invention for human CB2 receptors was determined by measuring inhibition of [^3H]-CP55940 binding to membrane preparations produced from transfected CHO-K1 cells.
CHO-K1 cells stably expressing human CB2 receptors were cultured in RPMI 1640 medium supplemented with 10% foetal calf serum, 2 mM glutamine, 100 U/ml penicillin, 0.1 mg/ml streptomycin and 0.5 mg/ml G418. The cells were collected using 0.5 mM EDTA and centrifuged at 500 g for 5 min at 4° C. The cell pellet was resuspended in phosphate buffered saline (PBS) and centrifuged at 500 g for 5 min at 4° C. The pellet was resuspended in 50 mM tris buffer pH 7.4 and centrifuged at 500 g for 5 min at 4° C. The cells were lysed by sonication and centrifuged at 39,000 g for 10 min at 4° C. The pellet was resuspended in 50 mM tris buffer pH 7.4 and centrifuged at 50,000 g for 10 min at 4° C. The membranes obtained in this final pellet were stored at −80° C.
Competitive inhibition of the binding of [^3H]-CP55940 to CB2 receptors was determined in duplicate in 96-well polypropylene plates. Cell membranes (10 μg of protein/well) were incubated with [^3H]-CP55940 (1 nM) for 60 min at 25° C. in 50 mM Tris-HCl buffer, pH 7.4, containing 0.1% bovine serum albumin (BSA), 5 mM MgCl2, and 50 μg/ml of bacitracin.
Bound [^3H]-CP55940 was separated from free [^3H]-CP55940 by filtration through GF/C fibre glass filter plates (Unifilter, Packard) pre-impregnated with 0.1% polyethylenimine (P.E.I.), using a Filtermate 196 (Packard). The filters were washed with 50 mM Tris-HCl buffer, pH 7.4 at 0-4° C. and the radioactivity present was determined using a counter (Packard Top Count).
Specific binding was obtained by subtracting non-specific binding (determined in the presence of 0.1 μM WIN55212-2) from total binding. The data were analysed by computer-assisted nonlinear regression (MDL). For each test, the IC50 value was converted to a Ki value (inhibition constant) using the Cheng-Prusoff equation.
where [L] is the concentration of the radioligand used in the assay and Kd is the dissociation constant of the radioligand at equilibrium.
On to `CC(C)(C)c1cc(-c2csc(C3(N)CCSCC3)n2)cc(C(C)(C)C)c1O` [Example 5, 4-[2-(4-aminotetrahydro-2H-thiopyran-4-yl)-1,3-thiazol-4-yl]-2,6-di-tert-butylphenol], for which the Ki was in the range of 500 to 1000 nM.

System in another series: not given
Assay: not given
Conditions: not given
The compound `CN(C)C1(c2nc(-c3ccc(Oc4ccccc4)cc3)cs2)CCOCC1` (as salt: hydrochloride) [Example 16, N,N-dimethyl-4-[4-(4-phenoxyphenyl)-1,3-thiazol-2-yl]tetrahydro-2H-pyran-4-amine hydrochloride] yielded a melting point of 213 to 223.2 °C.

Regarding `CN1CCC(c2nc(-c3cc(C(C)(C)C)c(O)c(C(C)(C)C)c3)cs2)(N(C)C)CC1` (as salt: hydrochloride) [Example 23, 2,6-di-tert-butyl-4-{2-[4-(dimethylamino)-1-methylpiperidin-4-yl]-1,3-thiazol-4-yl}phenol hydrochloride], the melting point lay in the range of 236 to 238 °C.

`CN(C)C1(c2nc(-c3ccc(Cc4ccccc4)cc3)cs2)CCOCC1` (as salt: hydrochloride) [Example 29, {4-[4-(4-benzylphenyl)-1,3-thiazol-2-yl]tetrahydro-2H-pyran-4-yl}dimethylamine hydrochloride]: the melting point is 228.4 to 229.5 °C.

As for `CN(C)C1(c2nc(-c3ccc(Oc4ccc([N+](=O)[O-])cc4)cc3)cs2)CCOCC1` (as salt: hydrochloride) [Example 32, N,N-dimethyl-4-{4-[4-(4-nitrophenoxy)phenyl]-1,3-thiazol-2-yl}tetrahydro-2H-pyran-4-amine hydrochloride], the melting point lay within 167 to 169 °C.

As to `CN(C)C1(c2nc(-c3ccc(Sc4ccccc4)cc3)cs2)CCOCC1` (as salt: hydrochloride) [Example 33, N,N-dimethyl-4-{4-[4-(phenylthio)phenyl]-1,3-thiazol-2-yl}tetrahydro-2H-pyran-4-amine hydrochloride], the melting point is 215 to 218.8 °C.

Take `COc1c(C(C)(C)C)cc(-c2csc(C3(N)CCOCC3)n2)cc1C(C)(C)C` [Example 1, {4-[4-(3,5-di-tert-butyl-4-methoxyphenyl)-1,3-thiazol-2-yl]tetrahydro-2H-pyran-4-yl}amine]: the melting point lay in the range of 128.4 to 129.7 °C.

Compound `CC(C)(C)c1cc(-c2csc(C3(N)CCSCC3)n2)cc(C(C)(C)C)c1O` [Example 5, 4-[2-(4-aminotetrahydro-2H-thiopyran-4-yl)-1,3-thiazol-4-yl]-2,6-di-tert-butylphenol] returned a melting point of 148.8 to 150.8 °C.

In the case of `CC(C)(C)c1cc(-c2csc(C3(N)CCOCC3)n2)cc(C(C)(C)C)c1` [Example 10, {4-[4-(3,5-di-tert-butylphenyl)-1,3-thiazol-2-yl]tetrahydro-2H-pyran-4-yl}amine], the melting point lay within 114 to 114.4 °C.
